Results as given in US8252796B2, “1-butyl-2-hydroxyaralkyl piperazine derivatives and the uses as anti-depression medicine thereof” (CSPC Zhonggi Pharmaceutical Technology (Shijiazhuang) Co. …, priority 2008, dated 2012).

Columns and labels:
[1] = Pharmacokinetics and bioavailability, single i.v. and oral administration in SD rat; type: in vivo; conditions: for bioavailability: oral 50 mg/kg vs i.v. 10 mg/kg
Method: To study the pharmacokinetics parameters and the bioavailability of VIII-9, VIII-10 and SIPI5286 when single i.v. and oral administration in SD rat
Eighteen male rats were randomized into 6 groups and were administrated with the three compounds via i.v. and oral route, respectively. The dosage was 10 mg/kg (IV) and 50 mg/kg (PO). The test substance was dissolved in the solution of 5% DMSO/95% HP-β-CD aqueous solution (30%), and were administrated to the animal via i.v. and oral route. Blood plasma was collected at a serial of time points after i.v. and oral administration, and the blood drug concentrations were determined by LC/MS/MS. Then the pharmacokinetics parameters and the bioavailability were calculated based on the blood drug concentrations.

[2] = target: T1, reuptake of NA by brain synaptosomes (prefrontal cortex) (Rattus norvegicus, UniProt Q9WTR4); assay: Inhibition of [3H]NA reuptake by rat brain synaptosomes, single concentration (Example 35); type: biochemical; conditions: test substance 10 μmol/L; inhibitory rate of 0.1 mM venlafaxine taken as 100%
T1 construct: from tissue; host or cells: rat prefrontal cortex synaptosomes
Method: (§1) Studies on the reuptake of monoamine neurotransmitters by brain synaptosomes was performed, which is a currently important mean adopted in the worldwide in pharmacological studies of central nervous. This method can not only be used to study the action mechanism of a drug, but also be used for screening new drugs acting by this mechanism.
(§2) Male SD rats were sacrificed by cervical dislocation and then the brains thereof were taken out rapidly by decollation and placed on ice. Related rain tissues (for [^3H]5-HT and [^3H]NA reuptake experiment, prefrontal cortex was taken; for [^3H]DA reuptake experiment, striatum was taken) were separated and weighed. 10 times (V/W) of 0.32 mol/L ice-cold sucrose solution was added and was homogenized electrically with glass-teflon. The homogenate was centrifugated at 4° C. at 1000 g×10 min. Then the supernatant was taken and centrifugated at 4° C. at 17000 g×20 min. The precipitation was suspended in 30 volume of KRH Buffer (125 mM NaCl, 4.8 mM KCl, 1.2 mM CaCl2, 1.2 mM MgSO4, 1.0 mM KH2PO4, 22 mM NaHCO3, 25 mM HEPES, 10 mM Glucose, 10 μM Pargyline, 0.2 mg/ml Ascorbic Acid) and then was preserved in an ice bath for use. (for NA reuptake experiment, the cortex needed was suspended in 20 volume of KRH Buffer)
(§3) Stock solution of the test substance was thawed immediately before use and diluted with KBH Buffer to 100 μmol/L, 50 μl thereof was added in 500 μl of total reaction system, and the final concentration was 10 μmol/L. Then 50 μl suspended synaptic prepared above was added and mixed evenly, incubated in water bath for 30 min at 37° C. Then […] [^3H] 5-HT (50 nmol/L [^3H]DA or […] [^3H]NA) was added. After incubated at 37° C. for 10 min, the reaction system was immediately taken out and the reaction was stopped by adding 2 ml of ice-cold 150 mmol/L Tris-HCl buffer solution. The samples were collected on the circular fiberglass membrane by vacuum filtration, and the membrane was washed 3 times with 3 ml of ice-cold Tris-HCl buffer solution. The filtration membrane was removed, baked for 15 min in a far-infrared oven and placed into an EP tube. 1.5 ml scintillation fluid was added overnight and was tested by liquid scintillation counter. For the solvent control total binding tube and the non-specific binding tube, no test substance was added; for the total binding tube, 50 μl solvent was added.

[3] = target: T2, reuptake of 5-HT by brain synaptosomes (prefrontal cortex) (Rattus norvegicus, UniProt P31652); assay: Inhibition of [3H]5-HT reuptake by rat brain synaptosomes, single concentration (Example 35); type: biochemical; conditions: test substance 10 μmol/L; inhibitory rate of 0.1 mM venlafaxine taken as 100%
T2 construct: from tissue; host or cells: rat prefrontal cortex synaptosomes
Method: as §1, §2, §3

[4] = target: T3, reuptake of DA by brain synaptosomes (striatum) (Rattus norvegicus, UniProt P23977); assay: Inhibition of [3H]DA reuptake by rat brain synaptosomes, single concentration (Example 35); type: biochemical; conditions: test substance 10 μmol/L; inhibitory rate of 0.1 mM 6-hydroxy DA taken as 100%
T3 construct: from tissue; host or cells: rat striatum synaptosomes
Method: as §1, §2, §3

[5] = target: T4, reuptake of [3H]5-HT by prefrontal cortex synaptosomes (Rattus norvegicus, UniProt P31652); assay: IC50 for inhibiting reuptake of [3H]5-HT by brain synaptosomes (Example 36); type: biochemical; conditions: mean, n = 3~4
T4 construct: from tissue; host or cells: rat prefrontal cortex synaptosomes
Method: as §2, with “The precipitation was suspended in 30 volume of KRH Buffer (125 mM NaCl, 4.8 mM KCl, 1.2 mM CaCl2, 1.2 mM MgSO4, 1.0 mM KH2PO4, 22 mM NaHCO3, 25 mM HEPES, 10 mM Glucose, 10 μM Pargyline, 0.2 mg/ml Ascorbic Acid) and then was preserved in an ice bath for use.” left out
(§4) The compounds were used for the studies on inhibition effect (IC50) on reuptake of [^3H]5-HT/NA/DA. At least 5 concentrations each time were settled for each test compound. Each concentration was determined by the average of double twin tubes and the test was repeated for more than 3 times. A series of concentrations of the compounds were prepared by gradient dilution before use. 50 μl thereof was added in total reaction system. Then 50 μl suspended synaptic membrane was added and mixed evenly, incubated in water bath at 37° C. for 30 min. Then 10 nmol/L [^3H] 5-HT (or 50 nmol/L [^3H]DA or 40 nmol/L [^3H]NA) was added and incubated in water bath at 37° C. for 10 min (for [^3H]NA, incubated for 5 min). For the [^3H]5-HT reuptake experiment, 50 μL of fluoxetine (100 μmol/L) was added to the non-specific binding tube; for the [^3H]DA reuptake experiment, 50 μL of cocaine (600 μmol/L) was added to the non-specific binding tube; for the [^3H]NA reuptake experiment, 50 μL of desipramine (100 μmol/L) was added to the non-specific binding tube; for the solvent control, solvent was added to the total binding tube, but no test compound added.
(§5) Sigmoidal curve fitting was performed for the data obtained from all of the test drugs by Origin 6.1, and the IC50 value was calculated.

ICR mice = assay: Mice Forced Swimming Test (in vivo antidepression activity); conditions: for swimming test: immobility time: n = 12, mean±SD
[6] = target: T5, reuptake of [3H]NA by prefrontal cortex synaptosomes (Rattus norvegicus, UniProt Q9WTR4); assay: IC50 for inhibiting reuptake of [3H]NA by brain synaptosomes (Example 36); type: biochemical; conditions: mean, n = 3~4
T5 construct: from tissue; host or cells: rat prefrontal cortex synaptosomes
Method: as §2
(§6) 1. Preparation of Rat Brain Synaptosomes (the Same as Example 35)
as §4, §5

mice = assay: Oral administration acute toxicity in mice; conditions: for mortality (%) / number of died animals: 14 days
[7] = target: T6, reuptake of [3H]DA by striatum synaptosomes (Rattus norvegicus, UniProt P23977); assay: IC50 for inhibiting reuptake of [3H]DA by brain synaptosomes (Example 36); type: biochemical; conditions: mean, n = 3~4
T6 construct: from tissue; host or cells: rat striatum synaptosomes
Method: as §2, §6, §4, §5

[8] = target: T7, DA reuptake, Rat striatum synaptosome (Rattus norvegicus, UniProt P23977); assay: DA reuptake, optical isomers (Example 37); type: biochemical; conditions: 15 min/37° C.
T7 construct: Rat striatum; from tissue; host or cells: rat striatum synaptosomes
Excerpt: (§7) 3. Experiment Results (IC50 Value was Obtained by Nonlinear Regression Analysis of Inhibition Rate/Concentration Response Curve)

[9] = target: T8, NE reuptake, Rat hypothalamus synaptosome (Rattus norvegicus, UniProt Q9WTR4); assay: NE reuptake, optical isomers (Example 37); type: biochemical; conditions: 20 min/37° C.
T8 construct: hypothalamus; from tissue; host or cells: rat hypothalamus synaptosomes
Excerpt: as §7

[10] = target: T9, 5-HT reuptake, Rat brain synaptosome (Rattus norvegicus, UniProt P31652); assay: 5-HT reuptake, optical isomers (Example 37); type: biochemical; conditions: 15 min/37° C.
T9 construct: Rat brain; from tissue; host or cells: rat brain synaptosomes
Excerpt: as §7

[11] = one week oral administration, 10.4 mg/kg
[12] = one week oral administration, 17.3 mg/kg
[13] = one week oral administration, 28.8 mg/kg
[14] = one week oral administration, 48 mg/kg
[15] = single oral administration, 10.4 mg/kg
[16] = single oral administration, 17.3 mg/kg
[17] = single oral administration, 28.8 mg/kg
[18] = single oral administration, 48 mg/kg

T1 sequence (Q9WTR4 1-597): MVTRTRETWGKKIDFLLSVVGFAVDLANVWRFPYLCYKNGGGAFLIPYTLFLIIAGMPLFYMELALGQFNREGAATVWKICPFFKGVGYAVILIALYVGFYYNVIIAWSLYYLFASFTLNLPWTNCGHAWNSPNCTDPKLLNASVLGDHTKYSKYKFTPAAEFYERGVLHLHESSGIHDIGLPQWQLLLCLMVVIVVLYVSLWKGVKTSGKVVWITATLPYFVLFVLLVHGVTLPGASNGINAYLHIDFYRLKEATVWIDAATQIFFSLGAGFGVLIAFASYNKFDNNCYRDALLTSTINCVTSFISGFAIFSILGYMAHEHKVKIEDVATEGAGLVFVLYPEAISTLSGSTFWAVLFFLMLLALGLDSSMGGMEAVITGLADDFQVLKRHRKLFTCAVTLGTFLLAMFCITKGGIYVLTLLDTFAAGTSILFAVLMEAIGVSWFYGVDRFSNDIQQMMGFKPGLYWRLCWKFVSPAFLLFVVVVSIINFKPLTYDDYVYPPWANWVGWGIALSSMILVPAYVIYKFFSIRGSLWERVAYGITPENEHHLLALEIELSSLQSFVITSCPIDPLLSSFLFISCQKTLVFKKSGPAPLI
T5 sequence (Q9WTR4 1-597): as above
T3 sequence (P23977 whole entry): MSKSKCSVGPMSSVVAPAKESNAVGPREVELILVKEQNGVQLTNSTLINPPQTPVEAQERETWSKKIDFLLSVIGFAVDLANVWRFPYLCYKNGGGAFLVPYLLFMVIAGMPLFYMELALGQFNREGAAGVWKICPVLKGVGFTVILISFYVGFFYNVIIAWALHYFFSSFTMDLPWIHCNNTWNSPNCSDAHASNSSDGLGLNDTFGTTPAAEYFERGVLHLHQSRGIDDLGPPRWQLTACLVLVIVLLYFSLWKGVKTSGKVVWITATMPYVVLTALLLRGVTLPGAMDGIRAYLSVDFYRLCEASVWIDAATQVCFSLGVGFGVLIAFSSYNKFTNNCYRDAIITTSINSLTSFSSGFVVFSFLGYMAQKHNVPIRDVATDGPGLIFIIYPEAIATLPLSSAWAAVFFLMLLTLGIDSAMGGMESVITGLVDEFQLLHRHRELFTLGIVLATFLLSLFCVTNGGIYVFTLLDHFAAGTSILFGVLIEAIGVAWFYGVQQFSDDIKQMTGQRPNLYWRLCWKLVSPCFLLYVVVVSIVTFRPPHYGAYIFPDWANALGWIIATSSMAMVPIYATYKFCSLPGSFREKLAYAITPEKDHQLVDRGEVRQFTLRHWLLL
T6 sequence (P23977 whole entry): as above
T4 sequence (P31652 whole entry): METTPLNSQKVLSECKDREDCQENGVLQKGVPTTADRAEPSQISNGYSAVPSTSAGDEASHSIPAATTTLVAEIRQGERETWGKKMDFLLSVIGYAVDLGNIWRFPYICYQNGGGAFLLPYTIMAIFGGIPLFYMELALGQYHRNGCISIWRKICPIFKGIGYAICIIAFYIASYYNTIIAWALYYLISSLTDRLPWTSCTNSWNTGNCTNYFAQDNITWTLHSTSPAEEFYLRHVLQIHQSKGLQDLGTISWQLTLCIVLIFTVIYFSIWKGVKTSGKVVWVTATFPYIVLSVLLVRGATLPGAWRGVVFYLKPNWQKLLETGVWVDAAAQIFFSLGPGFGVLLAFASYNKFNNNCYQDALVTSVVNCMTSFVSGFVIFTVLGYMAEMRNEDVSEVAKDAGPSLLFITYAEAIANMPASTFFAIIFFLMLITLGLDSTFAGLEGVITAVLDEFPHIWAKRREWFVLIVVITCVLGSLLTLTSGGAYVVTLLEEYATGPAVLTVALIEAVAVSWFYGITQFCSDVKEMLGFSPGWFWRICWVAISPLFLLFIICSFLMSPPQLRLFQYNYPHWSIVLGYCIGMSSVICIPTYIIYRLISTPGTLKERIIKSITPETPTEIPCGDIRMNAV
T2 sequence (P31652 whole entry): as above
T8 sequence (Q9WTR4 1-597): as the sequence (Q9WTR4 1-597) above
T7 sequence (P23977 whole entry): as the sequence (P23977 whole entry) above
T9 sequence (P31652 whole entry): as the sequence (P31652 whole entry) above

Row | Structure (SMILES) | AUC (0-t) ([1]; i.v. 10 mg/kg) | half life (T½) ([1]; i.v. 10 mg/kg) | Cmax ([1]; i.v. 10 mg/kg, (5 min)) | AUC (0-t) ([1]; oral 50 mg/kg) | Cmax ([1]; oral 50 mg/kg) | Tmax ([1]; oral 50 mg/kg) | half life (T½) ([1]; oral 50 mg/kg) | bioavailability [1] | inhibition on the reuptake of NA(%) [2] | Inhibition on the reuptake of 5-HT(%) [3] | inhibition on the reuptake of DA(%) [4] | IC50 [5] | swimming test: immobility time (ICR mice; [11]) | swimming test: immobility time (ICR mice; [12]) | swimming test: immobility time (ICR mice; [13]) | swimming test: immobility time (ICR mice; [14]) | ED50 swimming test (ICR mice; single oral administration) | swimming test: immobility time (ICR mice; [15]) | swimming test: immobility time (ICR mice; [16]) | swimming test: immobility time (ICR mice; [17]) | also measured
1 | CCCC[C@H]([C@@H](O)c1ccc2c(Cl)c(OC)ccc2c1)N1CCN(Cc2ccccc2)CC1 (racemic) [VIII-9, (1SR,2RS)-N^1-benzyl-N^4-[1-butyl-2-(5′-chloro-6′-methoxyl-2′-naphthyl)hydroxyethyl]piperazine] | 4060.59 ng·h/mL | 7.83 h | 2640.94 ng/mL | 3345.73 ng·h/mL | 352.27 ng/mL | 1.50 h | 5.89 h | 16.32% | 155.2% | 125% | 117% | 73.3 nM | 93.4 ± 26.71 s | 82.1 ± 44.06 s | 87.2 ± 40.07 s | 91.5 ± 58.14 s | 34.3 mg/kg | 74.3 ± 46.63 s | 119.4 ± 28.02 s | 77.4 ± 53.81 s | swimming test: immobility time (ICR mice; [18]): 104.3 ± 75.81 s; IC50 [6]: 2.8 nM; mortality (%) (mice; oral 507.8 mg/kg): 0%; number of died animals (mice; oral 507.8 mg/kg): 0; mortality (%) (mice; oral 781.2 mg/kg): 0%; number of died animals (mice; oral 781.2 mg/kg): 0; mortality (%) (mice; oral 1201.9 mg/kg): 0%; number of died animals (mice; oral 1201.9 mg/kg): 0; mortality (%) (mice; oral 1849.1 mg/kg): 0%; number of died animals (mice; oral 1849.1 mg/kg): 0; mortality (%) (mice; oral 2844.7 mg/kg): 0%; number of died animals (mice; oral 2844.7 mg/kg): 0; IC50 [7]: 2.1 nM
2 | CCCC[C@H]([C@H](O)c1ccc2c(Cl)c(OC)ccc2c1)N1CCN(Cc2ccccc2)CC1 (racemic) [VIII-10, (1SR,2SR)-N^1-benzyl-N^4-[1-butyl-2-(5′-chloro-6′-methoxyl-2′-naphthyl)hydroxyethyl]piperazine] | 2932.05 ng·h/mL | 9.06 h | 2998.49 ng/mL | 5552.24 ng·h/mL | 727.20 ng/mL | 1.67 h | 16.41 h | 63.78% | 145% | 136% | 133% | 272 nM | 77.6 ± 24.69 s | 78.2 ± 25.63 s | 51.9 ± 51.23 s | 68.3 ± 34.01 s | 11.8 mg/kg | 81.8 ± 39.34 s | 43.4 ± 35.41 s | 40.8 ± 40.24 s | swimming test: immobility time (ICR mice; [18]): 64.4 ± 43.01 s; IC50 [6]: 4730 nM; mortality (%) (mice; oral 507.8 mg/kg): 0.00%; number of died animals (mice; oral 507.8 mg/kg): 0; mortality (%) (mice; oral 781.2 mg/kg): 33.3%; number of died animals (mice; oral 781.2 mg/kg): 2; mortality (%) (mice; oral 1201.9 mg/kg): 66.7%; number of died animals (mice; oral 1201.9 mg/kg): 4; mortality (%) (mice; oral 1849.1 mg/kg): 83.3%; number of died animals (mice; oral 1849.1 mg/kg): 5; mortality (%) (mice; oral 2844.7 mg/kg): 100%; number of died animals (mice; oral 2844.7 mg/kg): 6; LD50 (95% confidential limit) (mice; oral, male & female, Bliss method): 1048.5 (751.33˜1433.7) mg/kg; IC50 [7]: 165 nM
3 | CCCCC(C(O)c1ccc2c(Cl)c(OC)ccc2c1)N1CCN(Cc2ccccc2)CC1 (single isomer, unassigned) [IX-23] |  |  |  |  |  |  |  |  |  |  |  |  |  |  |  |  |  |  |  |  | IC50 [8]: 1000 nM; IC50 [9]: 2100 nM; IC50 [10]: 1900 nM
